By pIC50 is commonly meant the negative decadic logarithm of the IC50, by convention in mol/L. A higher pIC50 goes with a low IC50.

pIC50: −log10 of the molar value.

The record followed here is PMC2773450 (Analytical biochemistry, 2008).

In this experiment the target is T1, O^6-alkylguanine—DNA alkyltransferase (AGT) (Homo sapiens, UniProt P16455).
T1 sequence (P16455 1-207): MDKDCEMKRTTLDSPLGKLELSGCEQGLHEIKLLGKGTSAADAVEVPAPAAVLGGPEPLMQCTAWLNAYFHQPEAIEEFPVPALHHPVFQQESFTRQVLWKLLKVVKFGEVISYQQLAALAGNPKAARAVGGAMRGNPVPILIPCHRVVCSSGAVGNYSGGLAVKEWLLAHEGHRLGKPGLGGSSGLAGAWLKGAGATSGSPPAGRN

With O^6-(thiophenemethyl)guanine [TMG], the negative logarithm of the IC50 (pIC50) is 7.64.
